Laboratory results taken from patent publication US12358918B2, “Aryl hydrocarbon receptor (AHR) activator compounds as cancer therapeutics” (THE BROAD INSTITUTE, INC., priority 2018, dated 2025).
Read-outs that look alike come from different tables or passages of the source.

Key:
[1] = biological target: recombinant human Adenosine A2A (FAST-002C) receptor (Homo sapiens, UniProt P29274); assay: cAMP HTRF assay, Adenosine A2A receptor, antagonist mode; type: cell-based
[2] = biological target: T1, recombinant human Adenosine A3 (FAST-004C) receptor (Homo sapiens, UniProt P0DMS8); assay: cAMP HTRF assay, Adenosine A3 receptor, antagonist mode; type: cell-based
T1 sequence (P0DMS8 1-318): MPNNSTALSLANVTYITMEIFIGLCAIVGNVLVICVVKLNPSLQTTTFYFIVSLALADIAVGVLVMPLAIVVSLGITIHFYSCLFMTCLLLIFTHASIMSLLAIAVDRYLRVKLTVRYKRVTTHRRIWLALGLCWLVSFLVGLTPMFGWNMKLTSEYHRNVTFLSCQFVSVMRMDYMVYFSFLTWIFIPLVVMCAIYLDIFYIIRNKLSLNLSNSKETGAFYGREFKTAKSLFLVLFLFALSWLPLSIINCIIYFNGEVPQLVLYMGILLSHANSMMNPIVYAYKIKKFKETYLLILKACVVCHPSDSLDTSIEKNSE

[3] = system: MDA-MB-231 breast cancer cell lines; assay: cytotoxicity, control cells vs cells overexpressing CYP1A1; type: cell-based
Source text: The dependence of each compound's cytotoxic effects upon CYP1A1 was also examined, via screening of MDA-MB-231 breast cancer cell lines for cytotoxic response. The CYP1A1-dependence of the cytotoxic response of to each tested compound was specifically determined by comparing the cytotoxicity of each compound administered to control cells with that of the compound administered to corresponding cells that overexpressed CYP1A1. […]

[4] = system: MDA-MB-468 and ZR51 breast cancer and JHH7 liver cancer cell lines
[5] = biological target: T2, recombinant human Adenosine A1 (FAST-001C) receptor (Homo sapiens, UniProt P30542); assay: cAMP HTRF assay, Adenosine A1 receptor, antagonist mode; design: inhibition: dose or concentration left out as unconfirmed; conditions: for inhibition: CHO-K1, read-out: % Inhibition Average at maximal concentration; for Hill Coefficient: antagonist mode dose-response fit
T2 sequence (P30542 1-326): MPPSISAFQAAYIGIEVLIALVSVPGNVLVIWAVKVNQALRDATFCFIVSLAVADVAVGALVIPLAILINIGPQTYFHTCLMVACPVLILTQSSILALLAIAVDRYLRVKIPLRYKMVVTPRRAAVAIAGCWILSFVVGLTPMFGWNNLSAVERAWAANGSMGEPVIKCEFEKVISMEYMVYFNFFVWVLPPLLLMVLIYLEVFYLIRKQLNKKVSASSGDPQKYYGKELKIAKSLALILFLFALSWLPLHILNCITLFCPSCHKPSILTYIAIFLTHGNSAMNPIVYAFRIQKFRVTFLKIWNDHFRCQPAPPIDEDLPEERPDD

[6] = biological target: T3, recombinant human Adenosine A2B (FAST-003C) receptor (Homo sapiens, UniProt P29275); assay: cAMP HTRF assay, Adenosine A2B receptor, antagonist mode; design: inhibition: dose or concentration left out as unconfirmed; conditions: for inhibition: HEK293, read-out: % Inhibition Average at maximal concentration; for Hill Coefficient: antagonist mode dose-response fit
T3 sequence (P29275 1-332): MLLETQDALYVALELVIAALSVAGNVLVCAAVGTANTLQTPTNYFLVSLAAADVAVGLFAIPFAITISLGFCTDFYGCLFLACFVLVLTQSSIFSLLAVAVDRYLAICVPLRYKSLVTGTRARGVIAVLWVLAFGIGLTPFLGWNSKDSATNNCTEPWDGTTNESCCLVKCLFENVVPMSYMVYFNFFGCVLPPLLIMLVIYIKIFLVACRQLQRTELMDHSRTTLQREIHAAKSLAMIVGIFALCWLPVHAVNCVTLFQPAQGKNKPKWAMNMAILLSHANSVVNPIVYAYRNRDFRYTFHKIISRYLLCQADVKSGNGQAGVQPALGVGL

[7] = system: MDA-MB-468 breast cancer cells; assay: Western immunoblot of treated cells over 24 hours; type: cell-based; conditions: FIG. 18
Procedure: Adherent cells were washed once with cold 1×PBS (Corning #01018002) and lysed with RIPA buffer (Sigma #R0278) supplemented by protease and phosphatase inhibitors (Sigma). Protein content was quantified using the DC Protein Assay (BioRad #5000111). Samples were reduced with (loading buffer) and boiled at 95° C. before being resolved by SDS gel electrophoresis on 4-20% Tris/glycine gels (Invitrogen). Proteins were transferred using the IBlot2 (Thermo #IB21001) onto the iBlot™ 2 nitrocellulose Transfer Stacks (Thermo #IB23001). The membranes were then blocked in Odyssey Blocking Buffer (Li-COR #927-40000) for one hour, and then probed overnight with primary antibodies diluted in blocking buffer. The following day, membranes were washed 3×5 mins with 1×TBST and then probed with LiCOR Infrared secondary antibodies for 1 hour at room temperature. Membranes were washed an additional 3×5 mins in 1×TBST and then imaged using the LiCOR Imager. […]

[8] = system: Twelve different breast cancer cell lines; assay: adenosine receptor antagonists and agonists dosed on twelve breast cancer cell lines; type: cell-based; conditions: 32 adenosine receptor antagonists/agonists compared; FIG. 6B
[9] = system: 578 cancer cell lines; assay: PRISM multiplexed cellular viability screening; type: cell-based; conditions: relation to FOXA1 / FOXA1 target expression across cell lines
Procedure: The instant discovery was made using large-scale multiplex profiling of existing drugs against 578 cancer cell lines, employing a PRISM multiplexed cellular viability assay.
Parental cell lines were obtained from the Cancer Cell Line Encyclopedia (CCLE) project (1). PRISM cell line barcoding, pooling, and screening was performed as previously described with several improvements to the original method (2). First, the lentiviral vector was modified to encode the unique barcode identifier at the end of the puromycin resistance gene. This enables barcodes to be detected using a variant of the mRNA capture and Luminex detection method developed for the L1000 gene expression assay (3). Second, a set of ten inert barcodes were spiked-in to each well of each plate after cell lysis to control for variation in PCR amplification as detailed below.
Luminex technology produced .Ixb files containing data for each Luminex bead observed during detection. These .Ixb files were processed to compute Median Fluorescence Intensity (MFI) values, calculated as the median of the values obtained for all beads corresponding to a single PRISM barcode.
MFI values were log-transformed (log MFI) and used to perform basic quality control. To detect probable screening artifacts, log MFI values were centered to the median log MFI for each cell line on each plate in order to put the measurements from each cell line on the same scale. For each well on each plate, the median of these centered values was then standardized according to the global median and global MAD across all plate wells in the same position. Data from wells with a standardized score of greater than 5 or less than −5 were excluded from all further processing steps.
For each cell line on each plate, the distribution of MFI values observed for the DMSO-treated negative controls was compared to that of the positive controls using a robust form of the Strictly Standardized Mean Difference (SSMD*)′. Specifically, SSMD* was calculated as: […]
Data corresponding to SSMD values less than 2 were removed before calculating cell viability.
The data in the instant disclosure were produced according to two different screening protocols. In the PR500 protocol, ten inert barcodes were spiked-in to each well of each plate after cell lysis. For data produced using the PR500 protocol, normalized MFI (nMFI) values were computed by taking the ratio of each MFI value against the median of the inert barcodes within each well. […]
Cell viability was calculated as the ratio of nMFI to the median of the nMFI from the DMSO-treated negative controls for each cell line on each plate. […] The final viability values were calculated as the median of the batch-corrected cell viabilities from biological replicates for each cell line, compound and dose. […]

[10] = HEK293; read-out: % Inhibition Average at maximal concentration
[11] = antagonist mode dose-response fit
[12] = antagonist mode; HEK293; reference agonist NECA
[13] = CHO-K1; read-out: % Inhibition Average at maximal concentration
[14] = HEK293, read-out: % Inhibition Average at maximal concentration

Sequence of recombinant human Adenosine A2A (FAST-002C) receptor (P29274 whole entry): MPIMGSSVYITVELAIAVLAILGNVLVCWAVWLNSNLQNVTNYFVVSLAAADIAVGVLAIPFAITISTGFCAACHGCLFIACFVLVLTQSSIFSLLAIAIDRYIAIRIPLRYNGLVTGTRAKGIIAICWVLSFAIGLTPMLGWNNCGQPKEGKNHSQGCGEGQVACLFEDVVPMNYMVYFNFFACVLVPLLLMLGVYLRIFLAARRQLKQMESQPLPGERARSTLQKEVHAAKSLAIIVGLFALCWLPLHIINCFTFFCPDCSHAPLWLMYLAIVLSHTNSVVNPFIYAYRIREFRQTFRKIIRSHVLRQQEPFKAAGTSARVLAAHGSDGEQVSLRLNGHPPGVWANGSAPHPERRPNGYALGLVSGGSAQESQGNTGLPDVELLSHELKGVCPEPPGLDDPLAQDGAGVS

With `C=C1Nc2ccccc2-c2nc(-c3ccco3)nn21` the inhibition at 10 µM [1, 10] was 99.2%, the “Hill Coefficient” value [1, 11] was 1.72 and the IC50 [1, 12] was 1330 nM. For the same molecule, the inhibition at 10 µM [2, 13] was 31%, the “CYP1A1-dependence of the cytotoxic response” value (from here on “CYP1A1-dependence”) [3] was “CYP1A1-dependent cytotoxic” and the “AHR-dependence of the cytotoxic response” value [4] was “dependence upon AHR”. The IC50 [5] was 493 nM, the inhibition [5] was 96.1% and the “Hill Coefficient” value [5] was 1.17. For the same molecule, the IC50 [6] was 2140 nM, the inhibition [6] was 109% and the “Hill Coefficient” value [6] was 1.80.
With `Clc1cccc2ncn3nc(-c4ccco4)nc3c12` [10-chloro-2-(2-furyl)[1,2,4]triazolo[1,5-c]quinazoline] the “CYP1A1-dependence” value [3] was “CYP1A1-dependent cytotoxic” and the “AHR-dependence of the cytotoxic response” value [4] was “dependence upon AHR”.
In the case of `Cc1ccc(-c2nc3c4ccccc4nc(C)n3n2)o1` [B5], the “CYP1A1-dependence” value [3] is reported as “CYP1A1-dependent cytotoxic” and the “AHR-dependence of the cytotoxic response” value [4] is reported as “dependence upon AHR”.
`c1ccc(-c2n[nH]c3c2oc2ccccc23)cc1` [GTP 14564, reference compound] was tested, and the “CYP1A1-dependence” value [3] was “CYP1A1-dependent cytotoxic” and the “AHR-dependence of the cytotoxic response” value [4] was “dependence upon AHR”.
With `Nc1nc2ccc(Br)cc2c2nc(-c3ccco3)nn12` [A14] the “CYP1A1-dependence” value [3] was “CYP1A1-dependent cytotoxic” and the “AHR-dependence of the cytotoxic response” value [4] was “dependence upon AHR”.
In the case of `Cn1cccc1-c1nc2c3cc(Cl)ccc3nc(N)n2n1` [BRO-018, 9-chloro-2-(1-methyl-1H-pyrrol-2-yl)-[1,2,4]triazolo[1,5-c]quinazolin-5-amine], the “CYP1A1-dependence” value [3] is reported as “CYP1A1-dependent cytotoxic” and the “AHR-dependence of the cytotoxic response” value [4] is reported as “dependence upon AHR”.
In the case of `COc1cccc2c1C(=O)c1c(O)c3c(c(O)c1C2=O)C[C@@](O)(C(=O)CO)C[C@@H]3O[C@H]1C[C@H](N)[C@H](O)[C@H](C)O1` [doxorubicin], the CYP1A1 expression ([7]; 24 hour time course) is reported as “no detectable induction of CYP1A1 expression”, the FOXA1 levels ([7]; 24 hour time course) is reported as “decline in FOXA1 levels” and the “DNA double stranded breaks (pH2A.X) and PARP cleavage” value ([7]; within 24 hours) is reported as “induced DNA double stranded breaks”.
In the case of `O=c1[nH]c2ccc(Cl)c(Cl)c2c2nc(-c3ccco3)nn12` [A1], the “CYP1A1-dependence” value [3] is reported as “CYP1A1-dependent cytotoxic” and the “AHR-dependence of the cytotoxic response” value [4] is reported as “dependence upon AHR”.
In the case of `Cc1ccc(-c2nc3c4cc(Cl)ccc4nc(N)n3n2)o1` [BRO-013], the inhibition at 10 µM [1, 14] is reported as 112%, the “Hill Coefficient” value [1, 11] is reported as 1.39 and the IC50 [1, 12] is reported as 27.2 nM. The inhibition at 10 µM [2, 13] was 74.2%, the “Hill Coefficient” value [2, 11] was 1.04 and the IC50 ([2]; antagonist mode; CHO-K1; reference agonist IB-MECA) was 730 nM. The “CYP1A1-dependence” value [3] was “CYP1A1-dependent cytotoxic”, the “AHR-dependence of the cytotoxic response” value [4] was “dependence upon AHR” and the IC50 [5] was 7.94 nM. For the same molecule, the inhibition [5] was 107%, the “Hill Coefficient” value [5] was 1.18 and the IC50 [6] was 116 nM. The inhibition [6] was 110% and the “Hill Coefficient” value [6] was 1.76.
With `Nc1nc2ccc(C(F)(F)F)cc2c2nc(-c3ccco3)nn12` [BRO-024, 2-(furan-2-yl)-9-(trifluoromethyl)-[1,2,4]triazolo[1,5-c]quinazolin-5-amine] the “CYP1A1-dependence” value [3] was “CYP1A1-dependent cytotoxic” and the “AHR-dependence of the cytotoxic response” value [4] was “dependence upon AHR”.
With `c1coc(-c2nc3c4ccccc4ncn3n2)c1` [2-(2-furyl)[1,2,4]triazolo[1,5-c]quinazoline] the “CYP1A1-dependence” value [3] was “CYP1A1-dependent cytotoxic” and the “AHR-dependence of the cytotoxic response” value [4] was “dependence upon AHR”.
In the case of `CN(C)c1nc2ccc(Cl)cc2c2nc(-c3ccco3)nn12` [BRO-020, 9-chloro-2-(furan-2-yl)-N,N-dimethyl-[1,2,4]triazolo[1,5-c]quinazolin-5-amine], the inhibition at 10 µM [1, 14] is reported as 18.4%, the inhibition at 10 µM ([2]; CHO-K1, read-out: % Inhibition Average at maximal concentration) is reported as 8.55% and the IC50 [5] is reported as 72.4 nM. The inhibition [5] was 81.1%, the “Hill Coefficient” value [5] was 0.83 and the inhibition [6] was 9.09%.
`Cc1nc2cnccc2c2nc(-c3ccco3)nn12` [B7] was tested, and the “CYP1A1-dependence” value [3] was “CYP1A1-dependent cytotoxic” and the “AHR-dependence of the cytotoxic response” value [4] was “dependence upon AHR”.
With `Clc1ccc2ncn3nc(-c4ccco4)nc3c2c1` [BRO-022, 9-chloro-2-(furan-2-yl)-[1,2,4]triazolo[1,5-c]quinazoline] the inhibition at 10 µM [1, 10] was 60.7%, the inhibition at 10 µM [2, 13] was 29.5% and the IC50 [5] was 170 nM. The inhibition [5] was 101%, the “Hill Coefficient” value [5] was 1.06 and the IC50 [6] was 2500 nM. The inhibition [6] was 97.8% and the “Hill Coefficient” value [6] was 1.39.
For `O=C(Cc1ccccc1)Nc1nc2ccc(Cl)cc2c2nc(-c3ccco3)nn12` [MRS-1220, reference compound], the “CYP1A1-dependence” value [3] was “CYP1A1-dependent cytotoxic”, the “cytotoxicity to breast cancer cell lines” value [8] was “cytotoxic” and the “cell killing profile in PRISM” value [9] was “cell killing profile specific for such FOXA1-dependent cancer cell lines”. For the same molecule, the “AHR-dependence of the cytotoxic response” value [4] was “dependence upon AHR”.
